According to paper PMC12794274, “Therapeutic potential of Sheng-Xian-Tang in doxorubicin-induced chronic heart failure by regulation of phenylalanine metabolism disruption” (Chinese Medicine, 2026):
Where two headings read alike, the source gives them in different places.

How the values were obtained:
AML12 cells = assay: AML12 cell viability (CCK8); assay type: cell-based
Experimental: (§1) Mouse hepatocellular cell lines (AML12), purchased from the Shanghai Cell Bank of Chinese Academy of Sciences (Shanghai, China), were cultured in Dulbecco’s Modified Eagle Medium (DMEM) supplemented with 10% fetal bovine serum (FBS) and 2 mM L-glutamine and 1% pyruvate and maintained at 37 °C in a […], 5% CO2 incubator. Cells were seeded at a density of 5 × 10^5 cells/well in 6-well plates. […] Cells’ survival rate was detected by Cell Counting Kit-8 (CCK8) Reagents (Thermo Scientific, Singapore).

[1] = tested on: PAH activity in AML12 cells; assay type: cell-based; conditions: BH4 10 μM; timosaponin B-II, neomangiferin, anemarrhenasaponin I 5, 10, 20 μM; timosaponin AIII 0.1, 0.2, 0.5 μM
Experimental: Serum biochemical parameters including brain natriuretic peptide (BNP), creatine kinase (CK), lactate dehydrogenase (LDH), alanine aminotransferase (ALT), and aspartate aminotransferase (AST) were measured using commercial ELISA kits (Nanjing Jiancheng Bioengineering Institute, Nanjing, China) according to the manufacturer’s instructions. Superoxide dismutase (SOD), and malondialdehyde (MDA) levels in liver and heart tissues were measured using assay kits from Aifang Biotechnology (Changsha, China). Phenylalanine and tyrosine concentrations in the cell were determined using an ELISA kit from Abmart (Shanghai, China).
as §1

[2] = molecular target: Phenylalanine hydroxylase (PAH) protein (Homo sapiens, UniProt P00439); assay: Surface Plasmon Resonance (SPR) analysis, Biacore T200; assay type: binding; conditions: PAH immobilized on CM5 chip, read-out: dissociation constant (Kd)
Experimental: SPR assays were conducted using a Biacore T200 system (GE Healthcare Life Sciences, USA). Phenylalanine hydroxylase (PAH) protein was immobilized on CM5 sensor chips using an amine-coupling kit (BR100050, GE Healthcare) following standard procedures. […] Samples were injected over reference and PAH-immobilized flow cells at a flow rate of 30 μL/min, with 120 s contact time and 120 s dissociation time. Kinetic parameters were calculated using Biacore T200 evaluation software.

Chain of Phenylalanine hydroxylase (PAH) protein (P00439 whole entry): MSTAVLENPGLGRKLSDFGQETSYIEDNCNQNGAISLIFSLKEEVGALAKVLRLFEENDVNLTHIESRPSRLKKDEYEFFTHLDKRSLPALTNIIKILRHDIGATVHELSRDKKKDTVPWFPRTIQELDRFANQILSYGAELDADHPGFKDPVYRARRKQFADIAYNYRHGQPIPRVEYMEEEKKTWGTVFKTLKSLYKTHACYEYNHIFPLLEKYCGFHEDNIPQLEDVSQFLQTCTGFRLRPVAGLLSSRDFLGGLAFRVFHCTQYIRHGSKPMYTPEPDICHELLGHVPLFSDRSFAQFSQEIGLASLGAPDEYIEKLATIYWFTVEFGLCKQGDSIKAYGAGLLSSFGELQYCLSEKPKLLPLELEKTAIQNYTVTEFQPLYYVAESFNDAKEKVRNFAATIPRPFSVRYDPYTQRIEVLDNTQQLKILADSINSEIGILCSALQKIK

With C[C@@H](CC[C@@]1(O)O[C@H]2C[C@H]3[C@@H]4CC[C@@H]5C[C@@H](O[C@@H]6O[C@H](CO)[C@H](O)[C@H](O)[C@H]6O[C@@H]6O[C@H](CO)[C@@H](O)[C@H](O)[C@H]6O)CC[C@]5(C)[C@H]4CC[C@]3(C)[C@H]2[C@@H]1C)CO[C@@H]1O[C@H](CO)[C@@H](O)[C@H](O)[C@H]1O [Timosaponin B-II] the non-cytoxic concentration (AML12 cells; mouse) was 5 to 20 µM, the “phenylalanine levels in AML12 cells increased by DOX” value [1] was “significantly reduce” and the Kd [2] was less than 10 µM.
With O=C(O)CCCCCCCC(=O)O [Azelaic acid] the non-cytoxic concentration (AML12 cells; mouse) was 5 to 20 µM.
O=c1c(-c2ccc(O)cc2)coc2cc(O)ccc12 [Daidzein] showed a non-cytoxic concentration (AML12 cells; mouse) of 5 to 20 µM.
C[C@@H]1C[C@H]2O[C@@]3(O[C@@H]2C(C)(C)O)[C@H](O)[C@@]2(C)[C@@H]4CC[C@H]5C(C)(C)[C@@H](O[C@@H]6OC[C@@H](O)[C@H](O)[C@H]6O)CC[C@@]56C[C@@]46CC[C@]2(C)[C@@H]13 [Cimigenol xyloside] was tested, and the non-cytoxic concentration (AML12 cells; AML12 cells) was 5 to 20 µM.
COc1ccc(-c2coc3cc(O[C@@H]4O[C@H](CO)[C@@H](O)[C@H](O)[C@H]4O)ccc3c2=O)cc1 [Ononin] was tested, and the non-cytoxic concentration (AML12 cells; AML12 cells) was 5 to 20 µM.
With CC(C)CCC1(O)O[C@H]2[C@H](O)[C@H]3[C@@H]4CC[C@@H]5C[C@@H](O[C@@H]6O[C@H](CO)[C@H](O)[C@H](O)[C@H]6O[C@@H]6O[C@H](CO)[C@@H](O)[C@H](O)[C@H]6O)CC[C@]5(C)[C@H]4CC[C@]3(C)[C@H]2[C@@H]1C (some centres unmarked) [Anemarrhenasaponin I] the non-cytoxic concentration (AML12 cells; AML12 cells) was 5 to 20 µM, the “phenylalanine levels in AML12 cells increased by DOX” value [1] was “significantly reduce” and the Kd [2] was less than 10 µM.
With COc1ccc(-c2coc3cc(O[C@@H]4O[C@H](CO)[C@@H](O)[C@H](O)[C@H]4O)ccc3c2=O)cc1O [Calycosin-7-O-β-D-glucoside] the non-cytoxic concentration (AML12 cells) was 5 to 20 µM.
